Measured values reported in ChEMBL document CHEMBL1157372, “gyrA and parC Mutations and associated quinolone resistance in Vibrio anguillarum serotype O2b strains isolated from farmed Atlantic cod (Gadus morhua) in Norway” (2007).
≈ marks a conversion by molar mass, not a printed value.

What was measured:
Type in all cases: functional
Vibrio anguillarum [1] = test: Antimicrobial activity against Vibrio anguillarum serotype O2b 04/09/367-5042 isolate containing gyrA and parC quinolone resistance mutations from Atlantic cod after 5 days by microplate broth dilution method; settings: 120 h
Vibrio anguillarum [2] = test: Antimicrobial activity against Vibrio anguillarum serotype O2b 04/09/494-5106 isolate containing parC position 83 Ser-Ile substitution mutation from Atlantic cod after 5 days by microplate broth dilution method; settings: 120 h
Vibrio anguillarum [3] = test: Antimicrobial activity against Vibrio anguillarum serotype O2b 04/09/422-5063 isolate containing gyrA and parC quinolone resistance mutations from Atlantic cod after 5 days by microplate broth dilution method; settings: 120 h
Vibrio anguillarum [4] = test: Antimicrobial activity against Vibrio anguillarum serotype O2b 04/09/363-5034 isolate containing gyrA and parC quinolone resistance mutations from Atlantic cod after 5 days by microplate broth dilution method; settings: 120 h
Vibrio anguillarum [5] = test: Antimicrobial activity against Vibrio anguillarum serotype O2b 04/09/367-5043 isolate containing gyrA position 83 Ser-Ile substitution mutation from Atlantic cod after 5 days by microplate broth dilution method; settings: 120 h
Vibrio anguillarum [6] = test: Antimicrobial activity against Vibrio anguillarum serotype O2b 04/09/363-5036 isolate containing gyrA and parC quinolone resistance mutations from Atlantic cod after 5 days by microplate broth dilution method; settings: 120 h
Vibrio anguillarum [7] = test: Antimicrobial activity against Vibrio anguillarum serotype O2b 04/09/422-5063 isolate containing gyrA and parC quinolone resistance mutations from Atlantic cod at 30 ug by disc diffusion assay; settings: read-out: IZ
Vibrio anguillarum [8] = test: Antimicrobial activity against Vibrio anguillarum serotype O2b 04/09/367-5043 isolate containing gyrA position 83 Ser-Ile substitution mutation from Atlantic cod at 30 ug by disc diffusion assay; settings: read-out: IZ
Vibrio anguillarum [9] = test: Antimicrobial activity against Vibrio anguillarum serotype O2b 04/09/367-5042 isolate containing gyrA and parC quinolone resistance mutations from Atlantic cod at 30 ug by disc diffusion assay; settings: read-out: IZ
Vibrio anguillarum [10] = test: Antimicrobial activity against Vibrio anguillarum serotype O2b 04/09/363-5036 isolate containing gyrA and parC quinolone resistance mutations from Atlantic cod at 30 ug by disc diffusion assay; settings: read-out: IZ
Vibrio anguillarum [11] = test: Antimicrobial activity against Vibrio anguillarum serotype O2b 04/09/363-5034 isolate containing gyrA and parC quinolone resistance mutations from Atlantic cod at 30 ug by disc diffusion assay; settings: read-out: IZ
Vibrio anguillarum [12] = test: Antimicrobial activity against Vibrio anguillarum serotype O2b 04/09/494-5106 isolate containing parC position 83 Ser-Ile substitution mutation from Atlantic cod at 30 ug by disc diffusion assay; settings: read-out: IZ
Vibrio anguillarum [13] = test: Antimicrobial activity against Vibrio anguillarum BAF33487 containing parC position 90 Glu-Gly substitution mutation

| SMILES | MIC (Vibrio anguillarum [1]) | MIC (Vibrio anguillarum [2]) | MIC (Vibrio anguillarum [3]) | MIC (Vibrio anguillarum [4]) | MIC (Vibrio anguillarum [5]) | MIC (Vibrio anguillarum [6]) | zone of inhibition at 30 µg/disc (Vibrio anguillarum [7]) | zone of inhibition at 30 µg/disc (Vibrio anguillarum [8]) | zone of inhibition at 30 µg/disc (Vibrio anguillarum [9]) | zone of inhibition at 30 µg/disc (Vibrio anguillarum [10]) | zone of inhibition at 30 µg/disc (Vibrio anguillarum [11]) | zone of inhibition at 30 µg/disc (Vibrio anguillarum [12]) | MIC (Vibrio anguillarum [13]) |
| --- | --- | --- | --- | --- | --- | --- | --- | --- | --- | --- | --- | --- | --- |
| CCN1CCN(c2cc3c(cc2F)c(=O)c(C(=O)O)cn3C2CC2)CC1 [ENROFLOXACIN] | 0.25 µg/mL (≈ 0.696 µM) | 1 µg/mL (≈ 2.78 µM) | 0.5 µg/mL (≈ 1.39 µM) | ≤ 0.03 µg/mL | 0.25 µg/mL (≈ 0.696 µM) | ≤ 0.03 µg/mL | – | – | – | – | – | – | – |
| CC1CCc2cc(F)cc3c(=O)c(C(=O)O)cn1c23 (stereo not given) [FLUMEQUINE] | – | – | – | – | – | – | 37 mm | 37 mm | 36 mm | 52 mm | 54 mm | 17 mm | – |
| CCn1cc(C(=O)O)c(=O)c2ccc(C)nc21 [NALIDIXIC ACID] | 16 µg/mL (≈ 68.9 µM) | > 128 µg/mL | 16 µg/mL (≈ 68.9 µM) | ≤ 1 µg/mL | 8 µg/mL (≈ 34.4 µM) | ≤ 1 µg/mL | – | – | – | – | – | – | – |
| CCn1cc(C(=O)O)c(=O)c2cc3c(cc21)OCO3 [OXOLINIC ACID] | 0.06 µg/mL (≈ 0.23 µM) | 16 µg/mL (≈ 61.2 µM) | 0.06 µg/mL (≈ 0.23 µM) | – | 0.06 µg/mL (≈ 0.23 µM) | ≤ 0.0001 µg/mL | 30 mm | 28 mm | 27 mm | 47 mm | 49 mm | 0 mm | 6.25 µg/mL (≈ 23.9 µM) |
